For 19 compounds, IC50 and EC50 results are on record in US11459339B2, “Biaryl derivative, preparation method thereof and pharmaceutical application thereof” (Abbisko Therapeutics Co., Ltd., priority 2018, dated 2022).

Assay [1] deals with interaction between PD-1 and PD-L1 (Homo sapiens (Human), UniProt Q9NZQ7). Nature of the assay: PD1-PDL1 HTRF binding activity test (Cisbio PD-1/PD-L1 binding assay kit). As to conditions: read-out: PD1-PDL1 HTRF Binding Activity IC50. The method, then: A. PD1-PDL1 HTRF Binding Activity Test
interaction between PD-1 and PD-L1, sequence (Q9NZQ7 19-238): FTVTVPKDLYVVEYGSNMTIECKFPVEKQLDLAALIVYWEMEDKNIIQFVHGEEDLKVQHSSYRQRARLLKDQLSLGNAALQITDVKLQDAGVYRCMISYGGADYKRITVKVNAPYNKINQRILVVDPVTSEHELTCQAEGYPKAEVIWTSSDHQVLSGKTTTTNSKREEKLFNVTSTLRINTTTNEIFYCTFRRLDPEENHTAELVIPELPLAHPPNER
The effect of compounds and positive compounds of the examples of the present invention on the interaction between PD-1 and PD-L1 was determined by the PD-1/PD-L1 binding assay kit from Cisbio (#64ICP01PEG or 64ICP01PEH). The detailed experimental process was as follows:
1. Pre-diluted compound solution, 4 μL of Tag1-PD-L1 and 4 μL of Tag2-PD1 were added to each well of a 384-well plate;
3. After incubated for 2 hrs at room temperature or overnight at 4° C., plates were read on Envision of Pelkin Elmer; and readings at 665 nm and 620 nm were recorded, and the ratio of the two readings was taken as a reading for each well;
4. The reading of each well after compound treatment was compared with the reading of DMSO treated wells to obtain the percent inhibition of the compound; and
5. IC50 values of compounds and positive compounds of the examples of the present invention were determined by non-linear regression analysis of percent inhibition at different compound concentrations.
In general terms: Time-resolved FRET reads energy transfer from a long-lived donor to a nearby acceptor.

Assay [2] deals with interaction between PD-1 and PD-L1 expressed on cell surfaces (Homo sapiens (Human), UniProt Q9NZQ7). Briefly: Jurkat reporter gene cellular assay (Jurkat/NF-κB-luc/PD1 cells cocultured with Raji-PD-L1 cells, OKT-3 stimulation). It is filed as cell-based. As to conditions: NF-κB-luc reporter activation fold, 6 hrs; read-out: Cell Activity EC50. As for the experimental part:
B. Jurkat Reporter Gene Cellular Assay
The effect of compounds of the examples of the present invention and positive compounds on the interaction between PD-1 and PD-L1 expressed on cell surfaces, and the related influence on T cell functions, were determined by a Jurkat reporter gene cellular assay.
Briefly, the reporter gene plasmid of NF-κB-luc and the plasmid of human PD-1 were transfected into Jurkat cells to establish a stably transfected cell line capable of stably expressing both PD-1 and NF-κB-Luc reporter genes; the expression level of PD-1 on the cell surface was confirmed by flow cytometry: and the expression of the reporter gene was confirmed via the response of the reporter gene stimulated by OKT-3 and Raiji cells.
In addition, the plasmid of human PD-L1 was transfected into Raji cells to obtain a cell line capable of stably expressing PD-L1. Jurkat/NF-κB-luc/PD1 cells and Raji-PD-L1 cells were then cocultured and stimulated with OKT-3. On this basis, the compounds were added, and the enhancement of the signal pathway of T cell activation by the inhibitory effect of the compounds on the interaction between PD-1 and PD-L1 was evaluated by readings of reporter gene responses. The specific experimental process was as follows:
2. 20 μL of Raji-PD-L1 cell suspension was added to each well with 5*10^4 cells for each well, and was incubated in an incubator for 20 min;
3. 20 μL of Jurkat/NF-κb-luc/PD-1 cell suspension was added to each well with 5*10^4 cells for each well, and well mixed, and 6 hrs later, Bright-glo (Promega, E2620) was applied and plates were read on Envision;
4. the reading of each well treated with the compound was compared with the reading of each well treated with DMSO to obtain the activation fold of the compound; and
5. EC50 values of compounds and positive compounds of the examples of the present invention were determined by non-linear regression analysis of activation folds at different compound concentrations.
In general terms: Reporter assays use an easily measured gene product as a stand-in for the process of interest.

interaction between PD-1 and PD-L1 expressed on cell surfaces, sequence (Q9NZQ7 19-290): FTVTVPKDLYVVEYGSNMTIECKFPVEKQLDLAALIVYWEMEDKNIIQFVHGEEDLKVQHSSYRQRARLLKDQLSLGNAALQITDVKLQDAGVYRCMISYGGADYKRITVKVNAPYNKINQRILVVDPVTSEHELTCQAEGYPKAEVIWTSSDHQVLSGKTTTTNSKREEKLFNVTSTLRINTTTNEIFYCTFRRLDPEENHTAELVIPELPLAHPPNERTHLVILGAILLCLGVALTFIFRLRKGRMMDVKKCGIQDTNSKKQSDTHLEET

By IC50 is commonly meant the concentration needed to halve the response being measured. In general, EC50 refers to the midpoint of the concentration-response curve. As to `COc1cc(C(=O)Nc2cccc(-c3cccc(NC(=O)c4cc(OC)c(CN5CC[C@@H](O)C5)cn4)c3C)c2C)ncc1CN1CC[C@@H](O)C1` [Example 47, N,N'-(2,2′-dimethyl-[1,1′-biphenyl]-3,3′-diyl)bis(5-(((R)-3-hydroxypyrrolidin-1-yl)methyl)-4-methoxypicolinamide)], the IC50 in assay [1] was found to be 0.27 nM. Also, the 50% effective concentration (EC50) in assay [2] was determined as 46 nM.
As to `COc1cc(C(=O)Nc2cccc(-c3cccc(NC(=O)c4cc(OC)c(CN5CC[C@H](O)C5)cn4)c3C)c2C)ncc1CN1CC[C@H](O)C1` [Example 48, N,N'-(2,2′-dimethyl-[1,1′-biphenyl]-3,3′-diyl)bis(5-(((S)-3-hydroxypyrrolidin-1-yl)methyl)-4-methoxypicolinamide)], in assay [1], the IC50 came out at 0.31 nM. In assay [2], the EC50 came to 102 nM.
For `COc1cc(C(=O)Nc2cccc(-c3cccc(NC(=O)c4cc(OC)c(CN5CCC(O)CC5)cn4)c3C)c2C)ncc1CN1CCC(O)CC1` [Example 49, N,N'-(2,2′-dimethyl-[1,1′-biphenyl]-3,3′-diyl)bis(5-((4-hydroxypiperidin-l-yl)methyl)-4-methoxypicolinamide)] the same measures were 0.33 nM and 104 nM.
For `COc1cc(C(=O)Nc2cccc(-c3cccc(NC(=O)c4cc(OC)c(CN5CC[C@@H](OC)C5)cn4)c3C)c2C)ncc1CN1CC[C@@H](OC)C1` [Example 50, N,N'-(2,2′-dimethyl-[1,1′-biphenyl]-3,3′-diyl)bis(4-methoxy-5-(((R)-3-methoxypyrrolidin-1-yl)methyl)picolinamide)] the same measures were 0.33 nM and 229 nM.
For `COc1cc(C(=O)Nc2cccc(-c3cccc(NC(=O)c4cc(OC)c(CN5CC(OC)C5)cn4)c3C)c2C)ncc1CN1CC(OC)C1` [Example 51, N,N'-(2,2′-dimethyl-[1,1′-biphenyl]-3,3′-diyl)bis(4-methoxy-5-((3-methoxyazetidin-1-yl)methyl)picolinamide)] the same measures were 0.22 nM and 288 nM.
In the case of `COc1cc(C(=O)Nc2cccc(-c3cccc(NC(=O)c4cc(OC)c(CN5CC(C)(OC)C5)cn4)c3C)c2C)ncc1CN1CC(C)(OC)C1` [Example 52, N,N'-(2,2′-dimethyl-[1,1′-biphenyl]-3,3′-diyl)bis(4-methoxy-5-((3-methoxy-3-methylazetidin-1-yl)methyl)picolinamide)], the IC50 in assay [1] amounted to 0.4 nM. Besides, the EC50 in assay [2] was found to be 508 nM.
For `COc1cc(C(=O)Nc2cccc(-c3cccc(NC(=O)c4cc(OC)c(CN[C@H]5C[C@@H](O)C5)cn4)c3C)c2C)ncc1CN[C@H]1C[C@@H](O)C1` [Example 53, N,N'-(2,2′-dimethyl-[1,1′-biphenyl]-3,3′-diyl)bis(5-((((1s,3s)-3-hydroxycyclobutyl)amino)methyl)-4-methoxypicolinamide)] the same measures were 0.15 nM and 52 nM.
For `COc1cc(C(=O)Nc2cccc(-c3cccc(NC(=O)c4cc(OC)c(CNC5COC5)cn4)c3C)c2C)ncc1CNC1COC1` [Example 54, N,N'-(2,2′-dimethyl-[1,1′-biphenyl]-3,3′-diyl)bis(4-methoxy-5-((oxetan-3-ylamino)methyl)picolinamide)] the same measures were 0.21 nM and 4770 nM.
For `COc1cc(C(=O)Nc2cccc(-c3cccc(NC(=O)c4cc(OC)c(CN[C@H]5CCOC5)cn4)c3C)c2C)ncc1CN[C@H]1CCOC1` [Example 55, N,N'-(2,2′-dimethyl-[1,1′-biphenyl]-3,3′-diyl)bis(4-methoxy-5-((((S)-tetrahydrofuran-3-yl)amino)methyl)picolinamide)] the same measures were 0.4 nM and 82 nM.
On to `COc1cc(C(=O)Nc2cccc(-c3cccc(NC(=O)c4cc(OC)c(CN[C@@H]5CCOC5)cn4)c3C)c2C)ncc1CN[C@@H]1CCOC1` [Example 56, N,N'-(2,2′-dimethyl-[1,1′-biphenyl]-3,3′-diyl)bis(4-methoxy-5-((((R)-tetrahydrofuran-3-yl)amino)methyl)picolinamide)], for which the IC50 in assay [1] was found to be 0.64 nM. The EC50 in assay [2] turned out to be 172 nM.
For `COc1cc(C(=O)Nc2cccc(-c3cccc(NC(=O)c4cc(OC)c(CN5CC6(COC6)C5)cn4)c3C)c2C)ncc1CN1CC2(COC2)C1` [Example 58, N,N'-(2,2′-dimethyl-[1,1′-biphenyl]-3,3′-diyl)bis(5-((2-oxa-6-azaspiro[3.3]heptan-6-yl)methyl)-4-methoxypicolinamide)] the same measures were 0.22 nM and 625 nM.
For `COc1cc(C(=O)Nc2cccc(-c3cccc(NC(=O)c4cc(OC)c(CNC[C@@H](O)CC(=O)O)cn4)c3C)c2C)ncc1CNC[C@@H](O)CC(=O)O` [Example 59] the same measures were 0.31 nM and 70 nM.
For `COc1cc(C(=O)Nc2cccc(-c3cccc(NC(=O)c4cc(OC)c(CN[C@H]5C[C@@H](C(=O)O)C5)cn4)c3C)c2C)ncc1CN[C@H]1C[C@@H](C(=O)O)C1` [Example 60, (1s,1′s,3s,3′s)-3,3′-((((((2,2′-dimethyl-[1,1′-biphenyl]-3,3′-diyl)bis(azanediyl))bis(carbonyl))bis(4-methoxypyridine-6,3-diyl))bis(methylene))bis(azanediyl))bis (cyclobutane-1-carboxylic acid)] the same measures were 0.034 nM and 580 nM.
With `COc1cc(C(=O)Nc2cccc(-c3cccc(NC(=O)c4cc(OC)c(CN5CCC[C@H]5C(=O)O)cn4)c3C)c2C)ncc1CN1CCC[C@H]1C(=O)O` [Example 61, (2′S)-(((((2,2′-dimethyl-[1,1′-biphenyl]-3,3′-diyl)bis(azanediyl))bis(carbonyl))bis(4-methoxypyridine-6,3-diyl))bis(methylene))di-L-proline], in assay [1], the IC50 came to 0.18 nM. In assay [2], the EC50 amounted to 319 nM.
For `COc1cc(C(=O)Nc2cccc(-c3cccc(NC(=O)c4cc(OC)c(CN5C[C@H](O)C[C@H]5C(=O)O)cn4)c3C)c2C)ncc1CN1C[C@H](O)C[C@H]1C(=O)O` [Example 62, (2S,2′S,4R,4′R)-1,1′-(((((2,2′-dimethyl-[1,1′-biphenyl]-3,3′-diyl)bis(azanediyl))bis(carbonyl))bis (4-methoxypyridine-6,3-diyl))bis (methylene))bis(4-hydroxypyrrolidine-2-carboxylic acid)] the same measures were 0.25 nM and 639 nM.
For `COc1cc(C(=O)Nc2cccc(-c3cccc(NC(=O)c4cc(OC)c(CN5CCOC[C@H]5C(=O)O)cn4)c3C)c2C)ncc1CN1CCOC[C@H]1C(=O)O` [Example 63, (3S,3′S)-4,4′(((((2,2′-dimethyl-[1,1′-biphenyl]-3-3′-diyl)bis(azanediyl))bis (carbonyl))bis(4-methoxypyridine-6,3-diyl))bis(methylene))bis(morpholine-3-carboxylic acid)] the same measures were 0.25 nM and 4600 nM.
For `COC(=O)CNCc1cnc(C(=O)Nc2cccc(-c3cccc(NC(=O)c4cc(OC)c(CNCC(=O)OC)cn4)c3C)c2C)cc1OC` [Example 66] the same measures were 0.64 nM and 691 nM.
In the case of `COc1cc(C(=O)Nc2cccc(-c3cccc(NC(=O)c4cc(OC)c(CNCC(=O)O)cn4)c3C)c2C)ncc1CNCC(=O)O` [Example 67], the IC50 in assay [1] stood at 0.51 nM. The EC50 in assay [2] came to 349 nM.
For `COc1cc(C(=O)Nc2cccc(-c3cccc(NC(=O)c4cc(OC)c(CN[C@H]5CCOC5=O)cn4)c3C)c2C)ncc1CN[C@H]1CCOC1=O` [Example 68] the same measures were 0.31 nM and 261 nM.
